This assay concerns the target T1, human kinase Mps-1 (Homo sapiens, UniProt P33981).
T1 construct: N-terminally GST-tagged human full length recombinant Mps-1 kinase; GST (N); purchased Invitrogen, Karslruhe, Germany PV4071
T1 sequence (P33981 1-857): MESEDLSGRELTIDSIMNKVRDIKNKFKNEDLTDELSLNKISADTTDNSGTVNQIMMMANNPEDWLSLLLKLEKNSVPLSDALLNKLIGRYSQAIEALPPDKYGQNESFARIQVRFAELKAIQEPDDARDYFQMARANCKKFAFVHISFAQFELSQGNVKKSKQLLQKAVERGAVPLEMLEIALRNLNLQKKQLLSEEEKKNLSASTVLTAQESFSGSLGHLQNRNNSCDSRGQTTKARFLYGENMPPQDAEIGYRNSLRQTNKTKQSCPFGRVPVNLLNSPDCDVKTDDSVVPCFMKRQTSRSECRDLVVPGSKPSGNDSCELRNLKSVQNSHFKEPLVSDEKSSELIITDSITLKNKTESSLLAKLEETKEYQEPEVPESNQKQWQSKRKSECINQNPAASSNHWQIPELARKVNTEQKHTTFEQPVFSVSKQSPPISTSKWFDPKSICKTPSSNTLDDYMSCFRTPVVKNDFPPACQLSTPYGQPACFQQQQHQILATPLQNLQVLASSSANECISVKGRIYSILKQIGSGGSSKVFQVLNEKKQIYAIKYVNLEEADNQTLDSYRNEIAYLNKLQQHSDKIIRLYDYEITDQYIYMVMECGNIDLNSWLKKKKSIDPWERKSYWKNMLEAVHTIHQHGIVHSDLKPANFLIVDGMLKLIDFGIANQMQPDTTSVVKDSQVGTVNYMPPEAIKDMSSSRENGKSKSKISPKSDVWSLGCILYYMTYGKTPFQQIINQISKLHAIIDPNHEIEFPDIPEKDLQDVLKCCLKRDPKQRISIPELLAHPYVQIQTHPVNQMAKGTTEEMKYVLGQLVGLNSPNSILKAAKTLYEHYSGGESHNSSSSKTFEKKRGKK
The assay can be described thus: Mps-1 kinase assay (TR-FRET). It is filed as biochemical. The note with it: GST-tagged human full length recombinant Mps-1; 10 μM ATP; 1 μM peptide substrate; 60 min at 22° C. The procedure, abridged:
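TR-FRET read-out: after 1 h binding at 22° C, Eu-labelled anti-phospho-Ser/Thr antibody transfers to SA-XLent on the phosphorylated biotinylated peptide. The enzyme is GST-tagged full-length human Mps-1, typically about 1 nM final, in the linear range.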

Drawing on patent US20140135319A1, “6-SUBSTITUTED IMIDAZOPYRAZINES FOR USE AS MPS-1 AND TKK INHIBITORS IN THE TREATMENT OF HYPERPROLIFERATIVE DISORDERS” (BAYER INTELLECTUAL PROPERTY GMBH, priority 2010, published 2014), this text covers IC50 for 24 compounds.

Turning to `COc1cc(C(=O)NC2CC2)ccc1-c1cnc2c(NCCCN)nc(-c3ccnn3C)cn12` [Example 1-102, 4-{8-[(3-Aminopropyl)amino]-6-(1-methyl-1H-pyrazol-5-yl)imidazo[1,2-a]pyrazin-3-yl}-N-cyclopropyl-3-methoxybenzamide], the IC50 was 531 nM.
The result for `Cc1cc(-c2cnc3c(NCCC(F)(F)F)nc(-c4ccncc4)cn23)ccc1C(=O)NC1CC1` [Example 1-103, N-cyclopropyl-2-methyl-4-{6-(pyridin-4-yl)-8-[(3,3,3-trifluoropropyl)amino]imidazo[1,2-a]pyrazin-3-yl}benzamide] reads 1.3 nM; that for `CC(C)CNc1nc(-c2ccccc2)cn2c(-c3ccc(C(=O)NC4CC4(C)C)cc3)cnc12` (stereo not drawn) [Example 2-1, N-(2,2-dimethylcyclopropyl)-4-{8-[(2-methylpropyl)amino]-6-phenylimidazo[1,2-a]pyrazin-3-yl}benzamide], 162 nM.
The result for `CC(C)CNc1nc(-c2ccccc2)cn2c(-c3ccc(C(=O)NC4CC4F)cc3)cnc12` (stereo not drawn) [Example 2-2, N-(2-fluorocyclopropyl)-4-{8-[(2-methylpropyl)amino]-6-phenylimidazo [1,2-a]pyrazin-3-yl} benzamide] reads 10.1 nM; that for `CC(C)CNc1nc(-c2ccccc2)cn2c(-c3ccc(C(=O)NC4(C)CC4)cc3)cnc12` [Example 2-3, N-(1-methylcyclopropyl)-4-{8-[(2-methylpropyl)amino]-6-phenylimidazo [1,2-a]pyrazin-3-yl}benzamide], 208 nM.
With `O=C(NC1CC1)c1ccc(-c2cnc3c(NCc4cccs4)nc(-c4ccncc4)cn23)cc1` [Example 3-1, N-cyclopropyl-4-{6-(pyridin-4-yl)-8-[(thiophen-2-ylmethyl)amino]imidazo[1,2-a]pyrazin-3-yl}benzamide], the IC50 came out at 4.1 nM.
The result for `C#CCNc1nc(-c2ccccc2)cn2c(-c3ccc(C(=O)NC4CC4)cc3)cnc12` [Example 3-2, N-cyclopropyl-4-[6-phenyl-8-(prop-2-yn-1-ylamino)imidazo[1,2-a]pyrazin-3-yl]benzamide] reads 7.4 nM; that for `CCCNc1nc(-c2ccncc2)cn2c(-c3ccc(C(=O)NC4CC4)cc3)cnc12` [Example 3-3, N-cyclopropyl-4-[8-(propylamino)-6-(pyridin-4-yl)imidazo[1,2-a]pyrazin-3-yl]benzamide], 2.1 nM; that for `O=C(NC1CC1)c1ccc(-c2cnc3c(NCCO)nc(-c4ccncc4)cn23)cc1` [Example 3-4, N-cyclopropyl-4-{8-[(2-hydroxyethyl)amino]-6-(pyridin-4-yl)imidazo [1,2-a]pyrazin-3-yl} benzamide], 11.3 nM.
The result for `O=C(NC1CC1)c1ccc(-c2cnc3c(NCCCN4CCOCC4)nc(-c4ccncc4)cn23)cc1` [Example 3-5, N-cyclopropyl-4-[8-{[3-(morpholin-4-yl)propyl]amino}-6-(pyridin-4-yl)imidazo[1,2-a]pyrazin-3-yl]benzamide] reads 214 nM.
With `CC(C)CCNc1nc(-c2ccncc2)cn2c(-c3ccc(C(=O)NC4CC4)cc3)cnc12` [Example 3-6, N-cyclopropyl-4-{8-[(3-methylbutyl)amino]-6-(pyridin-4-yl)imidazo [1,2-a]pyrazin-3-yl} benzamide] the figure was 2.4 nM; with `O=C(NC1CC1)c1ccc(-c2cnc3c(NCC4CCCO4)nc(-c4ccncc4)cn23)cc1` (stereo not drawn) [Example 3-7, N-cyclopropyl-4-{6-(pyridin-4-yl)-8-[(tetrahydrofuran-2-ylmethyl)amino]imidazo[1,2-a]pyrazin-3-yl}benzamide], 2.4 nM.
In the case of `O=C(NC1CC1)c1ccc(-c2cnc3c(NCCCN4CCCC4=O)nc(-c4ccncc4)cn23)cc1` [Example 3-8, N-cyclopropyl-4-[8-{[3-(2-oxopyrrolidin-1-yl)propyl]amino}-6-(pyridin-4-yl)imidazo[1,2-a]pyrazin-3-yl]benzamide], the 50% inhibitory concentration (IC50) was determined as 17.6 nM.
The result for `O=C(NC1CC1)c1ccc(-c2cnc3c(NCc4ccccc4F)nc(-c4ccncc4)cn23)cc1` [Example 3-9, N-cyclopropyl-4-{8-[(2-fluorobenzyl)amino]-6-(pyrdin-4-yl)imidazo [1,2-a]pyrazin-3-yl} benzamide] reads 1 nM; that for `O=C(NC1CC1)c1ccc(-c2cnc3c(NCc4ccc(F)cc4)nc(-c4ccncc4)cn23)cc1` [Example 3-10, N-cyclopropyl-4-{8-[(4-fluorobenzyl)amino]-6-(pyrdin-4-yl)imidazo [1,2-a]pyrazin-3-yl} benzamide], 1.9 nM; that for `O=C(NC1CC1)c1ccc(-c2cnc3c(NCCCCO)nc(-c4ccncc4)cn23)cc1` [Example 3-11, N-cyclopropyl-4-{8-[(4-hydroxybutyl)amino]-6-(pyridin-4-yl)imidazo [1,2-a]pyrazin-3-yl} benzamide], 4.1 nM.
The result for `O=C(NC1CC1)c1ccc(-c2cnc3c(NCc4ccccc4)nc(-c4ccncc4)cn23)cc1` [Example 3-12, 4-[8-(benzylamino)-6-(pyridin-4-yl)imidazo [1,2-a]pyrazin-3-yl]-N-cyclopropylbenzamide] reads 2.3 nM; that for `CCCCNc1nc(-c2ccncc2)cn2c(-c3ccc(C(=O)NC4CC4)cc3)cnc12` [Example 3-13, 4-[8-(butylamino)-6-(pyridin-4-yl)imidazo [1,2-a]pyrazin-3-yl]-N-cyclopropylbenzamide], 1.7 nM; that for `CC(=O)NCCNc1nc(-c2ccncc2)cn2c(-c3ccc(C(=O)NC4CC4)cc3)cnc12` [Example 3-14, 4-[8-{[2-(acetylamino)ethyl]amino}-6-(pyridin-4-yl)imidazo[1,2-a]pyrazin-3-yl]-N-cyclo-propylbenzamide], 30.7 nM.
With `O=C(NC1CC1)c1ccc(-c2cnc3c(NCc4c(F)cccc4F)nc(-c4ccncc4)cn23)cc1` [Example 3-15, N-cyclopropyl-4-{8-[(2,6-difluorobenzyl)amino]-6-(pyridin-4-yl)imidazo [1,2-a]pyrazin-3-yl} benzamide] the figure was 2.7 nM; with `O=C(NC1CC1)c1ccc(-c2cnc3c(NCCCn4ccnc4)nc(-c4ccncc4)cn23)cc1` [Example 3-16, N-cyclopropyl-4-[8-{[3-(1H-imidazol-1-yl)propyl]amino}-6-(pyridin-4-yl)imidazo[1,2-a]pyrazin-3-yl]benzamide], 12.9 nM; with `O=C(NC1CC1)c1ccc(-c2cnc3c(NCc4ccccn4)nc(-c4ccncc4)cn23)cc1` [Example 3-17, N-cyclopropyl-4-{6-(pyridin-4-yl)-8-[(pyridin-2-ylmethyl)amino]imidazo [1,2-a]pyrazin-3-yl} benzamide], 4.6 nM.
For `O=C(NC1CC1)c1ccc(-c2cnc3c(NCc4cccnc4)nc(-c4ccncc4)cn23)cc1` [Example 3-18, N-cyclopropyl-4-{6-(pyridin-4-yl)-8-[(pyridin-3-ylmethyl)amino]imidazo [1,2-a]pyrazin-3-yl} benzamide], the IC50 was found to be 2 nM.
With `O=C(NC1CC1)c1ccc(-c2cnc3c(NCc4ccncc4)nc(-c4ccncc4)cn23)cc1` [Example 3-19, N-cyclopropyl-4-{6-(pyridin-4-yl)-8-[(pyridin-4-ylmethyl)amino]imidazo [1,2-a]pyrazin-3-yl} benzamide] the figure was 2.1 nM.
